Measured values taken from PubChem BioAssay AID2060610 (Molecular Pharmacology Branch, DTP, NCI, 2025).

System: 616215-338-R-J1-PDC complex spheroids, viability % test/control
Assay: Anticancer human tumor 616215-338-R-J1-PDC patient-derived colon adenocarcinoma cell line growth inhibition [CLK]
Conditions: for IC50: curve of first compound; for viability, T/C: stronger effect = lower value
How it was run: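 Patient-derived tumor cells grown as complex spheroids with HUVEC endothelial cells and mesenchymal stem cells, treated with drug combinations. Concentrations descend in half-log steps from near clinical Cmax, or from 10 microM if Cmax unknown.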

[1] = second compound 0.0316 µM, first compound 0.0316 µM
[2] = second compound 0.0316 µM, first compound 0.1 µM
[3] = second compound 0.0316 µM, first compound 0.316 µM
[4] = second compound 0.0316 µM, first compound 1 µM
[5] = second compound 0.1 µM, first compound 0.0316 µM
[6] = second compound 0.1 µM, first compound 0.1 µM
[7] = second compound 0.1 µM, first compound 0.316 µM
[8] = second compound 0.1 µM, first compound 1 µM
[9] = second compound 0.316 µM, first compound 0.0316 µM
[10] = second compound 0.316 µM, first compound 0.1 µM
[11] = second compound 0.316 µM, first compound 0.316 µM
[12] = second compound 0.316 µM, first compound 1 µM
[13] = second compound 1 µM, first compound 0.0316 µM
[14] = second compound 1 µM, first compound 0.1 µM
[15] = second compound 1 µM, first compound 0.316 µM
[16] = second compound 1 µM, first compound 1 µM
[17] = second compound 3.16 µM, first compound 0.0316 µM
[18] = second compound 3.16 µM, first compound 0.1 µM
[19] = second compound 3.16 µM, first compound 0.316 µM
[20] = second compound 3.16 µM, first compound 1 µM
[21] = second compound 10 µM, first compound 0.0316 µM
[22] = second compound 10 µM, first compound 0.1 µM
[23] = second compound 10 µM, first compound 0.316 µM
[24] = second compound 10 µM, first compound 1 µM
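Note: spheroids exposed to agents for 7 days.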
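Throughout, for viability, T/C: 100% = DMSO vehicle wells.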

C=CC(=O)N1CCN(c2nc(=O)n(-c3c(C)ccnc3C(C)C)c3nc(-c4c(O)cccc4F)c(F)cc23)C(C)C1 (centres undefined) + CNC(=O)c1ccc(Nc2nc(OC3CCCC3)c3c(-c4ccc5nc(C)oc5c4)c[nH]c3n2)c(OC)c1
IC50 (second compound 0.0316 µM): > 10000 nM | IC50 (second compound 0.1 µM): > 10000 nM | IC50 (second compound 0.316 µM): < 31.6 nM | IC50 (second compound 1 µM): > 10000 nM | IC50 (second compound 3.16 µM): < 31.6 nM | IC50 (second compound 10 µM): < 31.6 nM | viability, T/C [1]: 89.8% | viability, T/C [2]: 94.6% | viability, T/C [3]: 92.8% | viability, T/C [4]: 93.2% | viability, T/C (second compound 0.0316 µM, first compound 3.16 µM): 94.6% | viability, T/C (second compound 0.0316 µM, first compound 10 µM): 95.1% | viability, T/C [5]: 53.8% | viability, T/C [6]: 67.8% | viability, T/C [7]: 60.8% | viability, T/C [8]: 64% | viability, T/C (second compound 0.1 µM, first compound 3.16 µM): 55.1% | viability, T/C (second compound 0.1 µM, first compound 10 µM): 56.4% | viability, T/C [9]: 49.7% | viability, T/C [10]: 44.8% | viability, T/C [11]: 46.9% | viability, T/C [12]: 49.8% | viability, T/C (second compound 0.316 µM, first compound 3.16 µM): 53.1% | viability, T/C (second compound 0.316 µM, first compound 10 µM): 49.2% | viability, T/C [13]: 58.5% | viability, T/C [14]: 49.1% | viability, T/C [15]: 50.4% | viability, T/C [16]: 48.9% | viability, T/C (second compound 1 µM, first compound 3.16 µM): 54.6% | viability, T/C (second compound 1 µM, first compound 10 µM): 54.6% | viability, T/C [17]: 43.2% | viability, T/C [18]: 45.2% | viability, T/C [19]: 40.1% | viability, T/C [20]: 49.1% | viability, T/C (second compound 3.16 µM, first compound 3.16 µM): 59.3% | viability, T/C (second compound 3.16 µM, first compound 10 µM): 52.6% | viability, T/C [21]: 43.5% | viability, T/C [22]: 41.3% | viability, T/C [23]: 46.3% | viability, T/C [24]: 56.6% | viability, T/C (second compound 10 µM, first compound 3.16 µM): 53.6% | viability, T/C (second compound 10 µM, first compound 10 µM): 54.8%

CCN1CCN(Cc2ccc(Nc3ncc(F)c(-c4cc(F)c5nc(C)n(C(C)C)c5c4)n3)nc2)CC1 + CN1CCN(c2cc(C(=O)Nc3cc4cc(-c5cnn(C)c5)ccc4cn3)ccn2)CC1
IC50 (second compound 0.0316 µM): 951 nM | IC50 (second compound 0.1 µM): 885 nM | IC50 (second compound 0.316 µM): < 3.16 nM | IC50 (second compound 1 µM): < 3.16 nM | IC50 (second compound 3.16 µM): < 3.16 nM | IC50 (second compound 10 µM): < 3.16 nM | viability, T/C (second compound 0.0316 µM, first compound 0.00316 µM): 111% | viability, T/C (second compound 0.0316 µM, first compound 0.01 µM): 105% | viability, T/C [1]: 112% | viability, T/C [2]: 149% | viability, T/C [3]: 175% | viability, T/C [4]: 46.2% | viability, T/C (second compound 0.1 µM, first compound 0.00316 µM): 114% | viability, T/C (second compound 0.1 µM, first compound 0.01 µM): 131% | viability, T/C [5]: 116% | viability, T/C [6]: 154% | viability, T/C [7]: 120% | viability, T/C [8]: 41.6% | viability, T/C (second compound 0.316 µM, first compound 0.00316 µM): 32.6% | viability, T/C (second compound 0.316 µM, first compound 0.01 µM): 32.6% | viability, T/C [9]: 37.6% | viability, T/C [10]: 48.6% | viability, T/C [11]: 42.6% | viability, T/C [12]: 12.8% | viability, T/C (second compound 1 µM, first compound 0.00316 µM): 0.15% | viability, T/C (second compound 1 µM, first compound 0.01 µM): 0.73% | viability, T/C [13]: 1.7% | viability, T/C [14]: 0.2% | viability, T/C [15]: 2.07% | viability, T/C [16]: 1.73% | viability, T/C (second compound 3.16 µM, first compound 0.00316 µM): 0.15% | viability, T/C (second compound 3.16 µM, first compound 0.01 µM): 0.16% | viability, T/C [17]: 0.15% | viability, T/C [18]: 0.13% | viability, T/C [19]: 0.76% | viability, T/C [20]: 0.18% | viability, T/C (second compound 10 µM, first compound 0.00316 µM): 0.2% | viability, T/C (second compound 10 µM, first compound 0.01 µM): 0.19% | viability, T/C [21]: 2.8% | viability, T/C [22]: 0.2% | viability, T/C [23]: 3.09% | viability, T/C [24]: 0.2%
